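Values below derive from 48-hour exposures of cells grown in 96-well plates, with endpoints linearly interpolated between the two concentrations bracketing the appropriate inhibition level. Abbreviation: GI50, concentration required for 50% inhibition of growth.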 The source made the active and inactive calls. Cut-off read from the data, not from the text of the source: active = GI50 up to about 1.1 µM and inactive = higher.
Key:
Assay in all cases: NCI anticancer screen, dose series, 48 h
HCC 2998 = test system: HCC 2998
SK-MEL-2 = test system: SK-MEL-2
DU-145 = test system: DU-145
OVCAR-5 = test system: OVCAR-5
SK-MEL-5 = test system: SK-MEL-5
OVCAR-3 = test system: OVCAR-3
HT-29 = test system: HT-29
SK-OV-3 = test system: SK-OV-3
RPMI-8226 = test system: RPMI-8226
M14 = test system: M14
NCI-H460 = test system: NCI-H460
SR = test system: SR
U-251 = test system: U-251
TK-10 = test system: TK-10
HCT-116 = test system: HCT-116
Malme-3M = test system: Malme-3M
CCRF-CEM = test system: CCRF-CEM
A549 = test system: A549
OVCAR-8 = test system: OVCAR-8
SNB-19 = test system: SNB-19

Measured: GI50

C=C1C[C@H](O)[C@H](Br)C(C)(C)C12CCC(C)(Cl)C(Br)C2 (stereo not given in full)
active: SK-MEL-2 1 µM | OVCAR-5 0.762 µM | HT-29 0.141 µM | RPMI-8226 0.589 µM | U-251 0.272 µM | CCRF-CEM 0.0359 µM | A549 0.566 µM
inactive: HCC 2998 5.52 µM | DU-145 4.84 µM | SK-MEL-5 3.04 µM | OVCAR-3 4.3 µM | SK-OV-3 3.03 µM | M14 2.36 µM | NCI-H460 1.69 µM | SR 2.19 µM | TK-10 3.15 µM | HCT-116 6.38 µM | Malme-3M 5.87 µM | OVCAR-8 1.23 µM | SNB-19 1.23 µM

C=C(C)C(=O)/N=C(\N)NC#N
inactive: HCC 2998 132 µM | SK-MEL-2 47.2 µM | DU-145 70.5 µM | OVCAR-5 168 µM | SK-MEL-5 75.2 µM | OVCAR-3 68.7 µM | HT-29 62.8 µM | SK-OV-3 170 µM | RPMI-8226 10.6 µM | M14 45.3 µM | NCI-H460 > 75 µM | SR 28.1 µM | U-251 > 76.9 µM | TK-10 41.7 µM | HCT-116 31.6 µM | Malme-3M 24.8 µM | CCRF-CEM 23.7 µM | A549 168 µM | OVCAR-8 31.4 µM | SNB-19 182 µM

C/C=C(\N=C=S)C(=O)OC1C(COC(C)=O)OC([C@]2(O)CC(=O)C(N)=C(C(=O)O)C2=O)C(O)C1OC1CC(OC)C(O)([C@@H](C)OC(=O)[C@@H](C)CC)C(C)O1 (stereo not given in full)
inactive: HCC 2998 18.9 µM | SK-MEL-2 9.33 µM | DU-145 18.9 µM | OVCAR-5 20.7 µM | SK-MEL-5 14.8 µM | OVCAR-3 15.8 µM | HT-29 8.49 µM | SK-OV-3 21.5 µM | RPMI-8226 2.11 µM | M14 16 µM | NCI-H460 20.7 µM | SR 4.39 µM | U-251 9.27 µM | TK-10 16.7 µM | HCT-116 7.83 µM | Malme-3M 9.57 µM | CCRF-CEM 2.4 µM | A549 33.7 µM | OVCAR-8 5.65 µM | SNB-19 11.9 µM

Cc1cc(NC(=O)NC(=O)c2ccccc2NC(=O)C(C)N)ccc1Oc1ncc(Br)cn1 (stereo not given)
inactive: TK-10 1.22 µM
active: HCC 2998 0.298 µM | SK-MEL-2 0.153 µM | DU-145 0.136 µM | OVCAR-5 1.09 µM | SK-MEL-5 0.0457 µM | OVCAR-3 0.0196 µM | HT-29 0.116 µM | SK-OV-3 0.0178 µM | RPMI-8226 0.207 µM | M14 0.13 µM | NCI-H460 0.179 µM | SR 0.111 µM | U-251 0.202 µM | HCT-116 0.714 µM | Malme-3M 0.188 µM | CCRF-CEM 0.0619 µM | A549 0.153 µM | OVCAR-8 0.141 µM | SNB-19 0.248 µM
